Measured values as given in EPA's ToxValDB 9.5 (doi:10.2903/j.efsa.2010.1711).
“And” between values parts separate entries of the source, which are not always exact repeats. Equal entries are not always repeated.

What was measured:
Apis mellifera = conditions: acute; duration: 96 hours; oral; unspecified; mortality
Bibionidae = conditions: chronic/long-term; duration: 28 days; development
Daphnia magna = conditions: chronic/long-term; duration: 21 days; reproduction
Tagia sp. = conditions: acute; duration: 14 days; mortality
Aphidius rhopalosiphi = experiment: LR50; higher = less toxic; conditions: acute; duration: 48 hours; mortality
Typhlodromus pyri = experiment: LR50; higher = less toxic; conditions: acute; duration: 7 days; mortality

CC(C)([CH2][Sn]([CH2]C(C)(C)c1ccccc1)([CH2]C(C)(C)c1ccccc1)[O][Sn]([CH2]C(C)(C)c1ccccc1)([CH2]C(C)(C)c1ccccc1)[CH2]C(C)(C)c1ccccc1)c1ccccc1 [Fenbutatin oxide]
NOEC (Anas platyrhynchos; reproductive): 16.8 mg/kg-day | LC50 (Anas platyrhynchos; short-term, oral, feed, mortality): > 968 mg/kg-day | LD50 (Apis mellifera): > 200 µg/piece | NOEC (Bibionidae): > 1000 mg/kg | LC50 (Colinus virginianus; acute, oral, diet, mortality): > 1610 mg/kg-day | LD50 (Colinus virginianus; acute, oral, mortality): > 2510 mg/kg-day | NOEC (Colinus virginianus; reproduction developmental): 14.4 mg/kg-day | NOEC (Daphnia magna): 0.004 mg/L | LC50 (Oncorhynchus mykiss; acute, duration: 96 hours, mortality): 1.14 ng/mL | NOEC (Oncorhynchus mykiss; chronic/long-term, duration: 62 days, growth): 0.0002 mg/L | NOAEC (Rattus norvegicus; acute, inhalation, mortality): 5.13 mg/kg-day | LD50 (Rattus norvegicus; acute, oral, F, mortality): > 3000 mg/kg-day | NOAEL (Rattus norvegicus; chronic, duration: 2 years, clinical signs): 5 mg/kg-day | NOAEL (Rattus norvegicus; reproduction developmental, body weight): 4.5 mg/kg-day and 10 mg/kg-day | LC50 (Tagia sp.): > 1000 mg/kg | LR50 (Aphidius rhopalosiphi): > 85.9 g/ha | LR50 (Typhlodromus pyri): 468 g/ha
